Source: patent US8440645B2, “Ceramide production promoter” (Kao Corporation, priority 2008, dated 2013)
Where a name gives a salt, the structure may show the parent alone.

What was measured:
[1] = test system: Normal human epidermal keratinocytes (NHEK(F)); assay: Ceramide production promotion test (Test Example 1); assay type: cell-based; settings: 3 days culture, control (10% ethanol) defined as 1
Description: Normal human epidermal keratinocytes (NHEK(F)) were seeded into an EpiLife-KG2 (KURABO INDUSTRIES LTD.) 6-well Plate and cultured until the cells became confluent. Thereafter, in replacement of EpiLife-KG2 (containing no proliferation addition factor), Compound 1 (5 mM) and Compound 2 (1 mM) prepared in Production Examples or a control solution (10% ethanol) was added thereto in an amount of 1%. Culture was performed for 3 days, and the cells in each well were separately collected.
Lipids were extracted from the collected cells by Bligh and Dyer method. The extracts were dried with nitrogen, and the residues were redissolved in chloroform and methanol, to thereby prepare lipid samples. Note that the amounts of proteins were determined by a BCA method.
The extracted lipids were subjected to horizontal development twice by using thin layer chromatography (TLC) and chloroform:methanol:acetic acid=190:9:1. The resultant was sprayed with a copper sulfate solution and heated on a hot plate, to thereby detect ceramide. Thereafter, the resultant values were divided by respective protein amounts to calculate amounts of ceramide. […] The numerical values shown in the table are relative values when the amount of ceramide in the control is defined as 1.

[2] = test system: Normal human epidermal keratinocytes (NHEK(F)); assay: Ceramide production promotion test (Test Example 3); assay type: cell-based; settings: 5 mM solution added in an amount of 1%, 3 days culture
Description: Normal human epidermal keratinocytes (NHEK(F)) were seeded into an EpiLife-KG2 (KURABO INDUSTRIES LTD.) 6-well Plate and cultured until the cells became confluent. […] Culture was performed for 3 days, and the cells in each well were separately collected. Lipids were extracted from the collected cells by a Bligh and Dyer method. The extracts were dried with nitrogen, and the residues were redissolved in chloroform and methanol, to thereby prepare lipid samples. Note that the amounts of proteins were determined by the BCA method. The extracted lipids were subjected to horizontal development twice by using thin layer chromatography (TLC) and chloroform:methanol:acetic acid=190:9:1. The resultant were sprayed with a copper sulfate solution and heated on a hot plate, to thereby detect ceramide. Thereafter, the resultant values were divided by respective protein amounts to calculate amounts of ceramide.

human horny layer = assay: Test on effect of improving moisture content in human horny layer (Test Example 2); assay type: in vivo; settings: 1% Compound 1 solution applied to cheek twice a day, five days a week, 4 weeks; ten men; P<0.1 t-test
Description: Ten men (25 to 40-year-old: mean age 30.5)
A solution containing 1% Compound 1 and a placebo solution containing only a solvent were used as application samples. The solvent used was 95.0% ethanol:1,3-BG:purified water=20:10:70.
The samples were applied twice a day and five days a week. The amount of each sample per application was set to two drops (about 100 μl) from an eye drop bottle.
The test was performed by applying the sample containing 1% Compound 1 to one side of the cheek and the placebo solution to the other side for 4 weeks, followed by measuring moisture contents in the horny layer using a Corneometer. The measurement was performed before the application and after the 4-week application at the same regions on the cheek, and the result of the 1% Compound 1-containing sample side was compared with that of the placebo side.

[3] = control (50% ethanol) defined as 1
[4] = control (10% ethanol) defined as 1

| Compound | Amount of ceramide (relative value) [2, 4] | also measured |
| --- | --- | --- |
| CCCCOCC(COCCCCCCCCCCCCCCCC(C)C)OP(=O)([O-])[O-].[Na+].[Na+] (centres unmarked) [Compound 2, 1-isostearyl-3-butylglycerol-2-phosphate sodium salt] |  | Amount of ceramide (relative value) ([1]; 1 mM solution added in an amount of 1%): 1.5 |
| CCCCCCCCCCCCCCCCCCOCC(O)COP(=O)([O-])[O-].[Na+].[Na+] (centres unmarked) [Compound 5, 1-Octadecylglycerol-3-phosphate disodium salt] |  | Amount of ceramide (relative value) [2, 3]: 2.6 |
| CCCCCCCCCCC(CCCCCCCC)COCC(O)COP(=O)(O)O (centres unmarked) [Compound 9, 1-(2-Octyldodecyl)glycerol-3-phosphate monoarginine salt] | 4.1 |  |
| 1-Isostearylglycerol-3-phosphate monoarginine salt [Compound 7] | 18.9 |  |
| CCCCCCCCCCCCOCC(O)COP(=O)([O-])[O-].[Na+].[Na+] (centres unmarked) [Compound 3, 1-Dodecylglycerol-3-phosphate disodium salt] | 3.1 |  |
| CCCCCC(C)CCCCCCCCCCCOCC(O)COP(=O)([O-])[O-].[K+].[K+] (centres unmarked) [Compound 8, 1-(12-Methylheptadecyl)glycerol-3-phosphate dipotassium salt] | 10.4 |  |
| monoalkyl (having an average alkyl chain length of C13) phosphate potassium salt [Comparative Compound 1, reference compound] |  | Amount of ceramide (relative value) [2, 3]: 0.6 |
| CCCCCCCCCCCCCCOCC(O)COP(=O)(O)O (centres unmarked) [Compound 4, 1-Tetradecylglycerol-3-phosphate monoarginine salt] | 4.3 |  |
| 1-n-tetradecyl-3-ethylglycerol-2-phosphate arginine salt [Compound 1] |  | Moisture content in the horny layer (Corneometer) compared with placebo-applied side (human horny layer): increase; Amount of ceramide (relative value) ([1]; 5 mM solution added in an amount of 1%): 3.3 |
| CCCCCCCCCC(CCCCCCC)COCC(O)COP(=O)(O)O (centres unmarked) [Compound 6, 1-(2-Heptylundecyl)glycerol-3-phosphate monoarginine salt] | 4.0 |  |
